Assay results from publication PMC11288027, “Exploring novel microbial metabolites and drugs for inhibiting Clostridioides difficile” (mSphere, 2024).
pIC50: −log10 of the molar value. Values after ≈ are worked out from the molar mass of the structure shown. Like-named read-outs stand apart in the source and are kept apart here.

What was measured:
[1] = test system: monkey kidney epithelial (Vero) cells; assay: Cytotoxicity assessment against Vero cells (MTS); conditions: Vero IC50 relative to MIC90 of C. difficile panel
[2] = Cytotoxicity assessment against Vero cells (MTS); conditions: monkey, Vero cells (monkey kidney epithelial cells)
L. casei = assay: MIC against human gut microbiota; assay type: cell-based; conditions: Lacticaseibacillus casei, ATCC334; L. casei ATCC 334, MRS broth, 5% CO2; read-out: minimum inhibitory concentration (MIC)
L. brevis = assay: MIC against human gut microbiota; assay type: cell-based, Lactobacillus brevis; conditions: Levilactobacillus brevis, ATCC14864; L. brevis ATCC-14864, MRS broth, 5% CO2; read-out: minimum inhibitory concentration (MIC)
E. fecalis = assay: MIC against human gut microbiota; assay type: cell-based, Enterococcus faecalis; conditions: Enterococcus faecalis; E. fecalis HM-970, TSB, aerobic; read-out: minimum inhibitory concentration (MIC)
E. faecium = assay: MIC against human gut microbiota; assay type: cell-based, Enterococcus faecium; conditions: Enterococcus faecium; E. faecium HM-202, TSB, aerobic; read-out: minimum inhibitory concentration (MIC)
[3] = test system: C. difficile ATCC BAA-1870; assay: MIC of active hits by broth microdilution; conditions: C. difficile ATCC BAA-1870, 48 h anaerobic; for MIC: Clostridioides difficile, ATCCBAA1870, 48 h
B. fragilis = assay: MIC against human gut microbiota; assay type: cell-based, Bacteroides fragilis; conditions: Bacteroides fragilis, anaerobic, read-out: minimum inhibitory concentration (MIC)
B. dorei = assay: MIC against human gut microbiota; assay type: cell-based, Bacteroides dorei; conditions: Phocaeicola dorei; B. dorei HM- 719, BHIS broth, anaerobic; read-out: minimum inhibitory concentration (MIC)
Bif. adolescentis = assay: MIC against human gut microbiota; assay type: cell-based, Bifidobacterium adolescentis; conditions: Bifidobacterium adolescentis; Bif. adolescentis HM- 633, BHIS broth, anaerobic; read-out: minimum inhibitory concentration (MIC)
[4] = test system: C. difficile clinical isolates; assay: MIC against a panel of 20 C. difficile clinical isolates (broth microdilution); assay type: cell-based, Clostridioides difficile; conditions: Clostridioides difficile; for MIC50: concentration that inhibited 50% of the 20 C. difficile clinical isolates
L. rhamanosus = assay: MIC against human gut microbiota; assay type: cell-based, Lactobacillus rhamnoosus; conditions: Lactobacillus, ATCC53103; L. rhamanosus ATCC-53103, MRS broth, 5% CO2; read-out: minimum inhibitory concentration (MIC)
Bif. longum = assay: MIC against human gut microbiota; assay type: cell-based, Bifidobacterium longum; conditions: Bifidobacterium longum, anaerobic, read-out: minimum inhibitory concentration (MIC)
Bif. angulatum = assay: MIC against human gut microbiota; assay type: cell-based, Bifidobacterium angulatum; conditions: Bifidobacterium angulatum; Bif. angulatum HM- 1189, BHIS broth, anaerobic; read-out: minimum inhibitory concentration (MIC)
Bif. breve = assay: MIC against human gut microbiota; assay type: cell-based, Bifidobacterium breve; conditions: Bifidobacterium breve, ATCC15700; Bif. breve ATCC 15700, BHIS broth, anaerobic; read-out: minimum inhibitory concentration (MIC)
[5] = test system: methicillin-resistant S. aureus (MRSA); design: method as in earlier work; conditions: cited from earlier work
Escherichia coli = test system: Escherichia coli; design: method as in earlier work; conditions: cited from earlier work
enterococcal species = assay: MIC against human gut microbiota, summary in text; assay type: cell-based; conditions: summary over the Enterococcus strains of Table 4
[6] = test system: Mycobacterium tuberculosis; design: method as in earlier work; conditions: read-out: half-maximal inhibitory concentration [IC50]; cited from earlier work
[7] = test system: C. difficile ATCC BAA-1870; assay: Time-kill assay at 5 × MIC; conditions: C. difficile ATCC BAA-1870, ~10^6 CFU/mL, up to 24 h
in vitro = conditions: monkey
Bacillus subtilis = test system: Bacillus subtilis; design: method as in earlier work; conditions: cited from earlier work
[8] = B. fragilis HM- 709, BHIS broth
[9] = B. fragilis HM- 718, BHIS broth
[10] = Bif. longum HM- 845, BHIS broth
[11] = Bif. longum HM- 846, BHIS broth
[12] = Bif. longum HM- 847, BHIS broth
[13] = Bif. longum HM- 848, BHIS broth

With `COC(=O)N/N=C/c1c[n+]([O-])c2ccccc2[n+]1[O-]` [Carbadox] the “safety index: Vero IC50 as times the MIC90 against strains of C. difficile” value [1] was over 64 times, the IC50 at 24 h [2] was over 128 µg/mL and the MIC (L. casei) was 128 µg/mL (≈ 488 µM). It also gave an MIC (L. brevis) of 32 µg/mL (≈ 122 µM), an MIC (E. fecalis) of 128 µg/mL (≈ 488 µM) and an MIC (E. faecium) of 128 µg/mL (≈ 488 µM). For the same molecule, the “MIC (μM)” value [3] was 4 µM, the MIC [3] was 1.05 µg/mL and the MIC (B. fragilis; [8]) was 2 µg/mL (≈ 7.63 µM). The MIC (B. fragilis; [9]) was 2 µg/mL (≈ 7.63 µM), the MIC (B. dorei) was 2 µg/mL (≈ 7.63 µM) and the MIC (Bif. adolescentis) was 4 µg/mL (≈ 15.3 µM). It also gave an MIC50 ([4]; 48 h, read-out: MIC50) of 1 µg/mL (≈ 3.81 µM), an MIC ([4]; ATCC630, C. difficile ATCC 630, read-out: minimum inhibitory concentration (MIC)) of 1 µg/mL (≈ 3.81 µM) and an MIC ([4]; ATCC43255, C. difficile ATCC 43255, read-out: minimum inhibitory concentration (MIC)) of 1 µg/mL (≈ 3.81 µM). For the same molecule, the MIC ([4]; ATCCBAA1870, C. difficile ATCC BAA-1870 (Ribotype-027), purchased compounds, panel test, read-out: minimum inhibitory concentration (MIC)) was 2 µg/mL (≈ 7.63 µM), the MIC ([4]; C. difficile CD-1 (Ribotype-027), read-out: minimum inhibitory concentration (MIC)) was 2 µg/mL (≈ 7.63 µM) and the MIC ([4]; C. difficile CD-6 (Ribotype-027), read-out: minimum inhibitory concentration (MIC)) was 0.5 µg/mL (≈ 1.91 µM). For the same molecule, the MIC ([4]; C. difficile CD-10(Ribotype-027), read-out: minimum inhibitory concentration (MIC)) was 2 µg/mL (≈ 7.63 µM), the MIC ([4]; C. difficile CD-12, read-out: minimum inhibitory concentration (MIC)) was 2 µg/mL (≈ 7.63 µM) and the MIC ([4]; C. difficile CD-13, read-out: minimum inhibitory concentration (MIC)) was 1 µg/mL (≈ 3.81 µM). The MIC ([4]; C. difficile CD-15, read-out: minimum inhibitory concentration (MIC)) was 1 µg/mL (≈ 3.81 µM), the MIC ([4]; C. difficile CD-22, read-out: minimum inhibitory concentration (MIC)) was 2 µg/mL (≈ 7.63 µM) and the MIC ([4]; C. difficile CD-23, read-out: minimum inhibitory concentration (MIC)) was 2 µg/mL (≈ 7.63 µM). The MIC ([4]; C. difficile CD-24, read-out: minimum inhibitory concentration (MIC)) was 1 µg/mL (≈ 3.81 µM), the MIC ([4]; C. difficile CD-26 (Ribotype-027), read-out: minimum inhibitory concentration (MIC)) was 2 µg/mL (≈ 7.63 µM) and the MIC ([4]; C. difficile CD-28, read-out: minimum inhibitory concentration (MIC)) was 2 µg/mL (≈ 7.63 µM). For the same molecule, the MIC ([4]; C. difficile CD-29 (Ribotype-027), read-out: minimum inhibitory concentration (MIC)) was 0.5 µg/mL (≈ 1.91 µM), the MIC ([4]; C. difficile CD-30, read-out: minimum inhibitory concentration (MIC)) was 2 µg/mL (≈ 7.63 µM) and the MIC ([4]; C. difficile NR-49302, read-out: minimum inhibitory concentration (MIC)) was 2 µg/mL (≈ 7.63 µM). The MIC ([4]; C. difficile NR-49304, read-out: minimum inhibitory concentration (MIC)) was 1 µg/mL (≈ 3.81 µM), the MIC ([4]; C. difficile NR-49308, read-out: minimum inhibitory concentration (MIC)) was 1 µg/mL (≈ 3.81 µM) and the MIC ([4]; C. difficile NR-49319, read-out: minimum inhibitory concentration (MIC)) was 0.5 µg/mL (≈ 1.91 µM). For the same molecule, the MIC50 ([4]; read-out: MIC50) was 1 µg/mL (≈ 3.81 µM), the MIC90 ([4]; concentration that inhibited 90% of the 20 C. difficile clinical isolates, read-out: MIC90) was 2 µg/mL (≈ 7.63 µM) and the MIC (L. rhamanosus) was over 256 µg/mL. The MIC (Bif. longum; [10]) was 4 µg/mL (≈ 15.3 µM), the MIC (Bif. longum; [11]) was 8 µg/mL (≈ 30.5 µM) and the MIC (Bif. longum; [12]) was 16 µg/mL (≈ 61 µM). For the same molecule, the MIC (Bif. longum; [13]) was 4 µg/mL (≈ 15.3 µM), the MIC (Bif. angulatum) was 4 µg/mL (≈ 15.3 µM) and the MIC (Bif. breve) was 16 µg/mL (≈ 61 µM).
In the case of `COc1cc2c(cc1O)CCN[C@]21CS[C@@H]2c3c(OC(C)=O)c(C)c4c(c3[C@H](COC1=O)N1[C@@H]2[C@H]2c3c(cc(C)c(OC)c3O)C[C@@H]([C@@H]1C#N)N2C)OCO4` [ET-770, ecteinascidin 770], the MIC [5] is given as 2.02 µM (≈ 1.56 µg/mL), the “safety index: Vero IC50 as times the MIC90 against strains of C. difficile” value [1] is given as “more than 1024 times” and the MIC (Escherichia coli) is given as 32.43 µM (≈ 25 µg/mL). For the same molecule, the MIC (L. casei) was at most 2 µg/mL, the MIC (L. brevis) was at most 2 µg/mL and the MIC (E. fecalis) was at most 2 µg/mL. The MIC (E. faecium) was at most 2 µg/mL, the MIC [3] was at most 0.19 µg/mL and the MIC (B. fragilis; [8]) was at most 2 µg/mL. It also gave an MIC (B. fragilis; [9]) of at most 2 µg/mL, an MIC (B. dorei) of at most 2 µg/mL and an MIC (enterococcal species) of at most 2 µg/mL. The MIC (Bif. adolescentis) was at most 2 µg/mL, the MIC90 [4] was 0.125 µg/mL (≈ 0.162 µM) and the MIC50 ([4]; 48 h) was at most 0.06 µg/mL. For the same molecule, the MIC ([4]; ATCC630, read-out: minimum inhibitory concentration (MIC), C. difficile ATCC 630) was 0.03 µg/mL (≈ 0.0389 µM), the MIC ([4]; ATCC43255, read-out: minimum inhibitory concentration (MIC), C. difficile ATCC 43255) was 0.06 µg/mL (≈ 0.0778 µM) and the MIC ([4]; ATCCBAA1870, read-out: minimum inhibitory concentration (MIC), C. difficile ATCC BAA-1870 (Ribotype-027), purchased compounds, panel test) was 0.125 µg/mL (≈ 0.162 µM). It also gave an MIC ([4]; read-out: minimum inhibitory concentration (MIC), C. difficile CD-1 (Ribotype-027)) of 0.125 µg/mL (≈ 0.162 µM), an MIC ([4]; read-out: minimum inhibitory concentration (MIC), C. difficile CD-6 (Ribotype-027)) of 0.125 µg/mL (≈ 0.162 µM) and an MIC ([4]; read-out: minimum inhibitory concentration (MIC), C. difficile CD-10(Ribotype-027)) of 0.125 µg/mL (≈ 0.162 µM). The MIC ([4]; read-out: minimum inhibitory concentration (MIC), C. difficile CD-12) was 0.125 µg/mL (≈ 0.162 µM), the MIC ([4]; read-out: minimum inhibitory concentration (MIC), C. difficile CD-13) was 0.06 µg/mL (≈ 0.0778 µM) and the MIC ([4]; read-out: minimum inhibitory concentration (MIC), C. difficile CD-15) was 0.06 µg/mL (≈ 0.0778 µM). For the same molecule, the MIC ([4]; read-out: minimum inhibitory concentration (MIC), C. difficile CD-22) was 0.125 µg/mL (≈ 0.162 µM), the MIC ([4]; read-out: minimum inhibitory concentration (MIC), C. difficile CD-23) was 0.06 µg/mL (≈ 0.0778 µM) and the MIC ([4]; read-out: minimum inhibitory concentration (MIC), C. difficile CD-24) was 0.125 µg/mL (≈ 0.162 µM). It also gave an MIC ([4]; read-out: minimum inhibitory concentration (MIC), C. difficile CD-26 (Ribotype-027)) of 0.125 µg/mL (≈ 0.162 µM), an MIC ([4]; read-out: minimum inhibitory concentration (MIC), C. difficile CD-28) of 0.03 µg/mL (≈ 0.0389 µM) and an MIC ([4]; read-out: minimum inhibitory concentration (MIC), C. difficile CD-29 (Ribotype-027)) of 0.06 µg/mL (≈ 0.0778 µM). It also gave an MIC ([4]; read-out: minimum inhibitory concentration (MIC), C. difficile CD-30) of 0.125 µg/mL (≈ 0.162 µM), an MIC ([4]; read-out: minimum inhibitory concentration (MIC), C. difficile NR-49302) of 0.06 µg/mL (≈ 0.0778 µM) and an MIC ([4]; read-out: minimum inhibitory concentration (MIC), C. difficile NR-49304) of 0.06 µg/mL (≈ 0.0778 µM). For the same molecule, the MIC ([4]; read-out: minimum inhibitory concentration (MIC), C. difficile NR-49308) was 0.125 µg/mL (≈ 0.162 µM), the MIC ([4]; read-out: minimum inhibitory concentration (MIC), C. difficile NR-49319) was 0.06 µg/mL (≈ 0.0778 µM) and the MIC50 [4] was 0.06 µg/mL (≈ 0.0778 µM). The MIC (L. rhamanosus) was at most 2 µg/mL, the pIC50 [6] was 6.89 and the MIC (Bif. longum; [10]) was at most 2 µg/mL. The MIC (Bif. longum; [11]) was at most 2 µg/mL, the MIC (Bif. longum; [12]) was at most 2 µg/mL and the MIC (Bif. longum; [13]) was at most 2 µg/mL. The MIC (Bif. angulatum) was at most 2 µg/mL, the “time to eliminate / clear C. difficile” value [7] was 6 h and the IC50 at 24 h (in vitro) was over 128 µg/mL. The MIC (Bacillus subtilis) was 1.01 µM (≈ 0.779 µg/mL) and the MIC (Bif. breve) was at most 2 µg/mL.
